Laboratory results: PubChem BioAssay (NCI)
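48-hour exposure; five concentrations; linearly interpolated endpoints. At the TGI there is no net growth.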

Legend:
Test in all cases: inhibition of tumour cell growth, NCI panel, 48 h
HOP-92 NSCLC = system: HOP-92 NSCLC
UACC-62 melanoma = system: UACC-62 melanoma
DLD-1 colon = system: DLD-1 colon
HOP-62 NSCLC = system: HOP-62 NSCLC
SR leukemia = system: SR leukemia
OVCAR-5 ovarian = system: OVCAR-5 ovarian
COLO 205 colon = system: COLO 205 colon
TK-10 renal = system: TK-10 renal
M19-MEL melanoma = system: M19-MEL melanoma
OVCAR-8 ovarian = system: OVCAR-8 ovarian
HCT-116 colon = system: HCT-116 colon
HT29 colon = system: HT29 colon
SF-539 CNS = system: SF-539 CNS
SK-MEL-5 melanoma = system: SK-MEL-5 melanoma
MOLT-4 leukemia = system: MOLT-4 leukemia
MALME-3M melanoma = system: MALME-3M melanoma
OVCAR-4 ovarian = system: OVCAR-4 ovarian
UO-31 renal = system: UO-31 renal
CAKI-1 renal = system: CAKI-1 renal
RPMI-8226 leukemia = system: RPMI-8226 leukemia
KM20L2 colon = system: KM20L2 colon
OVCAR-3 ovarian = system: OVCAR-3 ovarian
IGROV1 ovarian = system: IGROV1 ovarian
NCI-H23 lung = system: NCI-H23 lung
SF-295 CNS = system: SF-295 CNS
RXF 393 renal = system: RXF 393 renal
K-562 leukemia = system: K-562 leukemia
HCT-15 colon = system: HCT-15 colon
SK-MEL-28 melanoma = system: SK-MEL-28 melanoma
EKVX NSCLC = system: EKVX NSCLC
HOP-18 NSCLC = system: HOP-18 NSCLC
U251 CNS = system: U251 CNS
SF-268 CNS = system: SF-268 CNS
DMS 114 small cell lung = system: DMS 114 small cell lung
SNB-78 CNS = system: SNB-78 CNS
A549 NSCLC = system: A549 NSCLC
KM12 colon = system: KM12 colon
M14 melanoma = system: M14 melanoma
HL-60(TB) leukemia = system: HL-60(TB) leukemia
SK-OV-3 ovarian = system: SK-OV-3 ovarian
SK-MEL-2 melanoma = system: SK-MEL-2 melanoma
HCC-2998 colon = system: HCC-2998 colon
786-0 renal = system: 786-0 renal
NCI-H460 lung = system: NCI-H460 lung
SW-620 colon = system: SW-620 colon
DMS 273 small cell lung = system: DMS 273 small cell lung
NCI-H226 lung = system: NCI-H226 lung
ACHN renal = system: ACHN renal
LXFL 529 NSCLC = system: LXFL 529 NSCLC
UACC-257 melanoma = system: UACC-257 melanoma
SNB-19 CNS = system: SNB-19 CNS
CCRF-CEM leukemia = system: CCRF-CEM leukemia
SN12C renal = system: SN12C renal
SNB-75 CNS = system: SNB-75 CNS
A498 renal = system: A498 renal
NCI-H522 lung = system: NCI-H522 lung
LOX IMVI melanoma = system: LOX IMVI melanoma

Measured: TGI

COC1CC(Br)(C#N)C1 (configuration not stated)
not listed: NCI-H460 lung | SW-620 colon | DMS 273 small cell lung | NCI-H226 lung | ACHN renal | LXFL 529 NSCLC | UACC-257 melanoma | SNB-19 CNS | CCRF-CEM leukemia | SN12C renal | SNB-75 CNS | A498 renal | NCI-H522 lung | LOX IMVI melanoma
> 100 µM: all other assays above

CCc1cccc(C)c1NC(=O)CCc1n[nH]c(=S)o1
28 µM: SW-620 colon
31.1 µM: HCT-116 colon
58.2 µM: RPMI-8226 leukemia
not listed: SR leukemia | RXF 393 renal | DMS 114 small cell lung | A549 NSCLC | SK-MEL-2 melanoma | LOX IMVI melanoma
> 100 µM: all other assays above

CC1(C)S[C@H](c2ccccc2C(=O)O)N[C@@H]1CC(=O)O
not listed: HOP-92 NSCLC | OVCAR-5 ovarian | TK-10 renal | MALME-3M melanoma | UO-31 renal | CAKI-1 renal | KM20L2 colon | OVCAR-3 ovarian | SK-OV-3 ovarian | SK-MEL-2 melanoma | HCC-2998 colon
> 100 µM: all other assays above

O=C(Nc1c(O)[nH]c(=S)[nH]c1=O)c1ccco1
not listed: DLD-1 colon | RXF 393 renal | EKVX NSCLC | HCC-2998 colon | DMS 273 small cell lung
> 100 µM: all other assays above
